Data on two molecules can be found in patent US12686711B2, “DARIC interleukin receptors” (Regeneron Pharmaceuticals, Inc., priority 2017, dated 2026).

The conditions of assay [1]: target or test not stated; chemically modified non-immunosuppressive rapamycin analogue; cited from earlier work.
In a further assay the test system is donor PBMCs. Briefly: IFNγ production in IL-12 pre-treated transduced and untransduced donor PBMCs. The assay is classed as cell-based. The note with it: untransduced controls and IL-18R-DARIC-GFP transduced cells; pre-treated 50 ng/mL human recombinant IL-12 for 24 hours, then medium with 100 ng/mL human recombinant IL-18; FIG. 2. From the text: IL-18 receptor (IL-18R) DARIC binding and signaling components were designed, constructed, and verified. An IL-18R DARIC lentiviral vector was constructed comprising an MNDU3 promoter operably linked to a polynucleotide encoding: a DARIC signaling component (CD8α-signal peptide, an FRB variant (T82L), and an IL-18R1 transmembrane and signaling domain); a P2A sequence; and a DARIC binding component (an Igκ-signal peptide, an FKBP12 domain, and a IL-18RAP transmembrane and signaling domain). An IL-18R DARIC-GFP lentiviral vector was constructed by appending another polynucleotide encoding a P2A sequence and GFP to the to the polynucleotide encoding the IL-18R1 signaling domain in aforementioned vector. See, e.g., SEQ ID NOs: 1-4.
Donor PBMCs were transduced with LVV encoding IL-18R-DARIC-GFP. Transduced PBMCs and untransduced control PBMCs were pre-treated with 50 ng/mL human recombinant IL-12 for 24 hours. The treated cells were washed and cultured in medium only, medium with 100 ng/mL human recombinant IL-18 or medium with 1 nM rapamycin. […] FIG. 2.

On to `CO[C@H]1[C@@H](O)[C@H](C)C[C@H](C)/C=C/C=C/C=C(\C)[C@@H](c2c[nH]c3c(C)cccc23)C[C@@H]2CC[C@@H](C)[C@@](O)(O2)C(=O)C(=O)N2CCCC[C@H]2C(=O)O[C@H]([C@H](C)C[C@@H]2CC[C@@H](O)[C@H](OC)C2)C[C@H](O)[C@H](C)/C=C(\C)[C@H]1O` [AP21967, C-16-(S)-7-methylindolerapamycin], for which, in assay [1], the IC50 was 10 nM. Turning to “IL-18: human recombinant IL-18 cytokine used as positive control”, in the assay with donor PBMCs, the “IFNγ production when cultured in IL-18” value was “increased IFNγ production in both untransduced controls and cells transduced with IL-18R-DARIC-GFP”.
